From patent US10494332B2, “Protein tyrosine phosphatases or SHP2 inhibitors and uses thereof” (Indiana University Research and Technology Corporation, priority 2015, dated 2019)
Several values for one entry are separate records, joined by “and”; a condition that tells them apart may be missing. Identical values can stand only once.

What was measured:
SHP2 = target: T1, SHP2 (Homo sapiens, UniProt Q06124); experiment: SHP2 phosphatase inhibition assay (pNPP); format: biochemical; details: pNPP at Km, pH 7.0, 25° C.; read-out: IC50 SHP2
T1 sequence (Q06124 224-528): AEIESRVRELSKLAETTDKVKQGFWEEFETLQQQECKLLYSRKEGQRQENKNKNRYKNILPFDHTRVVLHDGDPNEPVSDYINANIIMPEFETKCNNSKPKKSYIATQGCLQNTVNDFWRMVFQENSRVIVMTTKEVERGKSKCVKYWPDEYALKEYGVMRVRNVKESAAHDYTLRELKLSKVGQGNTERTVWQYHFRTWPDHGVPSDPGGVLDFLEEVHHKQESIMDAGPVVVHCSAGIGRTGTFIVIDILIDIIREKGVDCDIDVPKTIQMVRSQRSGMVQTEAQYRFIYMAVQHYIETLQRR

PTPH1 = target: T2, PTPH1 (Homo sapiens, UniProt P26045); experiment: PTP inhibition assay (pNPP); format: biochemical
T2 sequence (P26045 1-913): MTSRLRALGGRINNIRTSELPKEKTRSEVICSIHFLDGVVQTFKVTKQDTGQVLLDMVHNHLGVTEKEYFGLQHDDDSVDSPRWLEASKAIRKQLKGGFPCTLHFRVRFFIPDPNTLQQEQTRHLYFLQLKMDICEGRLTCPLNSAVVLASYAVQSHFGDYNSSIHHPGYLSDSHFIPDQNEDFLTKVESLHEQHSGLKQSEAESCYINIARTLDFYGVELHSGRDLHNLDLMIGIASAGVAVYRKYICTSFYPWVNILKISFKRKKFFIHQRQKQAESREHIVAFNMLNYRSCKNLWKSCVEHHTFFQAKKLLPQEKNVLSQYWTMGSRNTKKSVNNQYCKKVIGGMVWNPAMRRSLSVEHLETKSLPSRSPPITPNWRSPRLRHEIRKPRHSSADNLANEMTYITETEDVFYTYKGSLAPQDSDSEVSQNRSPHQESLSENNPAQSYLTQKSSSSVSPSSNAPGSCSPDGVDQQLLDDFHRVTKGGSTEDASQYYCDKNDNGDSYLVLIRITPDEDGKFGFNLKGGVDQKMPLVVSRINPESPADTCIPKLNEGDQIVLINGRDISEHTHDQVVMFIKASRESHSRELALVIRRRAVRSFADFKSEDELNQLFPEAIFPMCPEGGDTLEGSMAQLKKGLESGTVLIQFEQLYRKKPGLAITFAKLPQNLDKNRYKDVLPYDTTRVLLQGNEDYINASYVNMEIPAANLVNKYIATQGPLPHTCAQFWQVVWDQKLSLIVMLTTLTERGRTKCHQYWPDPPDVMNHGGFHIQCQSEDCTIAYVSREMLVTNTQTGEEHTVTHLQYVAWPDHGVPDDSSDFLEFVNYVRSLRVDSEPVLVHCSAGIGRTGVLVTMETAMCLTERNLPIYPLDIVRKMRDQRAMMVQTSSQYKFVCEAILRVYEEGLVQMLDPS

mPTPA = mPTPA (Mycobacterium tuberculosis, UniProt P9WIA1); experiment: biochemical
Sequence of mPTPA (P9WIA1 whole entry): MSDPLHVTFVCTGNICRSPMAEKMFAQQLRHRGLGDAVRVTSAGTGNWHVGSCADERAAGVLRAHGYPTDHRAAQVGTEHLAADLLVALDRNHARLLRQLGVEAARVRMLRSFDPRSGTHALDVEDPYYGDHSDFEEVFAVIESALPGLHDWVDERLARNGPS

CD45 = target: T3, CD45 (Homo sapiens, UniProt P08575); experiment: PTP inhibition assay (pNPP); format: biochemical; details: pNPP at Km, pH 7.0, 25° C.
T3 sequence (P08575 26-1306): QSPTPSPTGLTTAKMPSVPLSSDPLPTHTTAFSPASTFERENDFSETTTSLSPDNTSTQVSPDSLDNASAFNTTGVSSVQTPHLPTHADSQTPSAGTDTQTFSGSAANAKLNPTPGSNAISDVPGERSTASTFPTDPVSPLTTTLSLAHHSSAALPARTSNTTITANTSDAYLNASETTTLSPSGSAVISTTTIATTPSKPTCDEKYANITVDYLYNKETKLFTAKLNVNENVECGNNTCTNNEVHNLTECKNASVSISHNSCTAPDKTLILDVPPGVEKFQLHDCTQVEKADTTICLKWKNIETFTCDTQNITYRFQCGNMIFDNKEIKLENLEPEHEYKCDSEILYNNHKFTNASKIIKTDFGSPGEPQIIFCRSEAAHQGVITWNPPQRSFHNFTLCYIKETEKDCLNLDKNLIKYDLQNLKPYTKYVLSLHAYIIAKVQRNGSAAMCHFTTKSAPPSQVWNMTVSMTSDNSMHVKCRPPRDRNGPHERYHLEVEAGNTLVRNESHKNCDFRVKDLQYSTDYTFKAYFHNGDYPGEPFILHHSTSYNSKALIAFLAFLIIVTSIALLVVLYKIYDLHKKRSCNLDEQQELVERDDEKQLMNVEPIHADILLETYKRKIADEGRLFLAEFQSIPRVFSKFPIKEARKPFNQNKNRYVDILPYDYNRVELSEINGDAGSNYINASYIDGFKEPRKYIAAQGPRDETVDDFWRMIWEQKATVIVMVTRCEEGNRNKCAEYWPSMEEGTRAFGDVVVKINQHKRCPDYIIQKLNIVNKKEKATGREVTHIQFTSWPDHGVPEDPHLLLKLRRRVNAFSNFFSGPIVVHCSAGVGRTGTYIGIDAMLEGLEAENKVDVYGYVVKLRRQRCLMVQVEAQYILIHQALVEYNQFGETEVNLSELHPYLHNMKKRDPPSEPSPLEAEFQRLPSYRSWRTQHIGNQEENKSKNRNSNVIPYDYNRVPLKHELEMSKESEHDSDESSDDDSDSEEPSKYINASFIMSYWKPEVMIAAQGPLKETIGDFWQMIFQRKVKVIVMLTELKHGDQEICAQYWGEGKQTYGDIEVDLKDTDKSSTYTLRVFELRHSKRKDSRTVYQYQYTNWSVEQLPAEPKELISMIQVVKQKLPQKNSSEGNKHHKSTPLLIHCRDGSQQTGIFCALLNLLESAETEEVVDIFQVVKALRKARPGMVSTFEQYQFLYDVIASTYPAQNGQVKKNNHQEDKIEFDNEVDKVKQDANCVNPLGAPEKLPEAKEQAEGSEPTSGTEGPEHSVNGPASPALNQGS

VHZ = target: T4, VHZ (Homo sapiens, UniProt Q9BVJ7); experiment: PTP inhibition assay (pNPP); format: biochemical
T4 sequence (Q9BVJ7 1-150): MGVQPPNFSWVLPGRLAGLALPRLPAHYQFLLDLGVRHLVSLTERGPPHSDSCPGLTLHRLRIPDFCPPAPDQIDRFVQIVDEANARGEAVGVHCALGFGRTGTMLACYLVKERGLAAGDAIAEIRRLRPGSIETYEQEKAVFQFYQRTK

Water solubility = format: physicochemical
M. tuberculosis Erdman = experiment: Microplate Alamar Blue assay (MABA) MIC; format: cell-based; details: Mycobacterium tuberculosis, minimum inhibitory concentration, read-out: In vitro anti-Mtb activity MABA-MIC Erdman
M. tuberculosis H37Rv = experiment: Microplate Alamar Blue assay (MABA) MIC; format: cell-based, Mycobacterium tuberculosis

## O=C(NCCNC(=O)C(c1ccccc1)S(=O)(=O)O)c1cccc(C(=O)c2ccccc2)c1 (stereo not shown) [Compound L319-02-A60]
SHP2
  IC50: > 200 µM

## O=C(CS(=O)(=O)O)Nc1cnc2ccccc2c1
PTPH1
  IC50: > 100 µM
mPTPA; IC50 mPTPA
  IC50: 3000 nM
SHP2
  IC50: > 100 µM
CD45
  IC50: > 100 µM

## O=C(Nc1nc2ccccc2s1)C(c1ccccc1)S(=O)(=O)O (stereo not shown) [Compound L319N15]
mPTPA; IC50 mPTPA
  IC50: 194 nM
SHP2
  IC50: > 200 µM and > 100 µM and 160 µM
VHZ
  IC50: > 200 µM
CD45
  IC50: > 200 µM and 180 µM

## O=C(Nc1ccc(N2CCOCC2)cc1)C(c1ccccc1)S(=O)(=O)O (stereo not shown) [Compound L319M68]
mPTPA
  Ki: 0.13 µM
mPTPA; IC50 mPTPA
  IC50: 250 nM
SHP2
  IC50: > 200 µM
CD45
  IC50: > 200 µM

## Cc1c(Br)cc(NC(=O)C(c2ccccc2)S(=O)(=O)O)cc1Br (stereo not shown) [Compound L319M34]
mPTPA; IC50 mPTPA
  IC50: 196 nM
SHP2
  IC50: > 100 µM

## O=C(Nc1cccc(OCc2ccccc2)c1)C(=O)Nc1ccccc1NC(=O)C(c1ccccc1)S(=O)(=O)O (stereo not shown) [Compound L319-21-M52]
SHP2
  IC50: > 50 µM

## O=C(Nc1cnc2ccccc2c1)C(c1ccccc1)S(=O)(=O)O (stereo not shown) [Compound L319M88]
mPTPA; IC50 mPTPA
  IC50: 143 nM
SHP2
  IC50: > 200 µM
CD45
  IC50: > 200 µM

## O=C(C(c1ccccc1)S(=O)(=O)O)N1CCC(c2ccc(Cl)c(Cl)c2)CC1 (stereo not shown) [Compound L319N47]
PTPH1
  IC50: 30 µM
mPTPA; IC50 mPTPA
  IC50: 11300 nM
SHP2
  IC50: 76 µM
VHZ
  IC50: 80 µM
Water solubility
  solubility: > 10000 µg/mL
CD45
  IC50: 140 µM

## O=C(CS(=O)(=O)O)Nc1ccc2nc(C(F)(F)F)[nH]c2c1
PTPH1
  IC50: > 100 µM
mPTPA; IC50 mPTPA
  IC50: 650 nM
SHP2
  IC50: > 100 µM
CD45
  IC50: > 100 µM

## CCCCc1ccc(NC(=O)C(=O)Nc2ccccc2NC(=O)C(c2ccccc2)S(=O)(=O)O)cc1 (stereo not shown) [Compound L319-21-M06]
SHP2
  IC50: > 50 µM

## O=C(CS(=O)(=O)O)Nc1nc2ccc([N+](=O)[O-])cc2s1 [Compound L335N15-07]
PTPH1
  IC50: > 100 µM
SHP2
  IC50: > 100 µM
CD45
  IC50: > 100 µM

## O=C(Nc1ccc(-c2ccccc2)cc1)C(c1ccccc1)S(=O)(=O)O (stereo not shown) [Compound L319N08]
SHP2
  IC50: > 100 µM

## O=C(NCc1ccc(NC(=O)C(c2ccccc2)S(=O)(=O)O)cc1)c1ccccc1-c1ccc(C(F)(F)F)cc1 (stereo not shown) [Compound L319-05-A64]
SHP2
  IC50: 69 µM

## O=C(Nc1ccc2nc(C(F)(F)F)[nH]c2c1)C(c1ccccc1)S(=O)(=O)O (stereo not shown) [Compound L319M54]
mPTPA; IC50 mPTPA
  IC50: 265 nM and 270 nM
SHP2
  IC50: > 200 µM
VHZ
  IC50: > 200 µM
CD45
  IC50: > 200 µM

## Cc1c(Br)cc(NC(=O)CS(=O)(=O)O)cc1Br
mPTPA
  Ki: 0.056 ± 0.002 µM
  Mode of mPTPA inhibition: reversible and competitive inhibitor
mPTPA; Biochemical potency against target (Ic50, nM) mPTPA
  IC50: 160 nM
mPTPA; IC50 mPTPA
  IC50: 160 nM
SHP2
  IC50: > 100 µM
CD45
  IC50: > 100 µM
M. tuberculosis Erdman
  MIC: > 10 µM
M. tuberculosis H37Rv
  Activity in standard MIC assay: devoid of activity
M. tuberculosis H37Rv; Mycobacterium tuberculosis, H37RV, minimum inhibitory concentration, read-out: In vitro anti-Mtb activity MABA-MIC H37Rv
  MIC: > 10 µM

## O=C(Nc1cccc(OCc2ccccc2)c1)C(c1ccccc1)S(=O)(=O)O (stereo not shown) [Compound L319M52]
PTPH1
  IC50: > 200 µM
mPTPA; IC50 mPTPA
  IC50: 560 nM
SHP2
  IC50: > 200 µM
VHZ
  IC50: > 200 µM
CD45
  IC50: > 200 µM

## O=C(Nc1ccc(OCc2ccccc2)c(Cl)c1)C(c1ccccc1)S(=O)(=O)O (stereo not shown) [Compound L319M50]
SHP2
  IC50: > 200 µM

## O=C(C(c1ccccc1)S(=O)(=O)O)N1CCC(Cc2ccccc2)CC1 (stereo not shown) [Compound L319N46]
PTPH1
  IC50: > 200 µM
mPTPA; IC50 mPTPA
  IC50: > 200000 nM
SHP2
  IC50: > 200 µM
VHZ
  IC50: > 200 µM
Water solubility
  solubility: > 10000 µg/mL
CD45
  IC50: > 200 µM

## O=C(C(c1ccccc1)S(=O)(=O)O)N1CCCC2CCCCC21 (stereo not shown) [Compound L319N53]
PTPH1
  IC50: > 200 µM
mPTPA; IC50 mPTPA
  IC50: > 200000 nM
SHP2
  IC50: > 200 µM
VHZ
  IC50: > 200 µM
Water solubility
  solubility: > 10000 µg/mL
CD45
  IC50: > 200 µM

## O=C(CS(=O)(=O)O)Nc1nc2ccccc2s1 [Compound L335N15]
PTPH1
  IC50: > 100 µM
mPTPA; IC50 mPTPA
  IC50: 263 nM
SHP2
  IC50: > 100 µM
CD45
  IC50: > 100 µM
